# Laboratory results reported in PubChem BioAssay (NCI).
# Several values for one entry are separate records, joined by “and”; a condition that tells them apart may be missing. Equal entries are not always repeated.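 In this assay, cells in 96-well plates receive the compound at five concentrations for 48 hours. Endpoints are linearly interpolated between the surrounding concentrations. Abbreviation: GI50, concentration required for 50% inhibition of growth. TGI: total growth inhibition.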
# Tests used:
# Assay in all cases: NCI tumour cell line growth inhibition, 48 h
# SR leukemia = system: SR leukemia
# COLO 205 colon = system: COLO 205 colon
# 786-0 renal = system: 786-0 renal
# HT29 colon = system: HT29 colon
# RXF-631 renal = system: RXF-631 renal
# SNB-19 CNS = system: SNB-19 CNS
# LXFL 529 NSCLC = system: LXFL 529 NSCLC
# UACC-257 melanoma = system: UACC-257 melanoma
# NCI-H226 lung = system: NCI-H226 lung
# A549 NSCLC = system: A549 NSCLC
# MCF7 breast = system: MCF7 breast
# RPMI-8226 leukemia = system: RPMI-8226 leukemia
# NCI/ADR-RES ovarian = system: NCI/ADR-RES ovarian
# SK-MEL-5 melanoma = system: SK-MEL-5 melanoma
# OVCAR-5 ovarian = system: OVCAR-5 ovarian
# M19-MEL melanoma = system: M19-MEL melanoma
# CCRF-CEM leukemia = system: CCRF-CEM leukemia
# ACHN renal = system: ACHN renal
# SK-MEL-28 melanoma = system: SK-MEL-28 melanoma
# OVCAR-4 ovarian = system: OVCAR-4 ovarian
# KM12 colon = system: KM12 colon
# NCI-H522 lung = system: NCI-H522 lung
# LOX IMVI melanoma = system: LOX IMVI melanoma
# MOLT-4 leukemia = system: MOLT-4 leukemia
# HOP-92 NSCLC = system: HOP-92 NSCLC
# HL-60(TB) leukemia = system: HL-60(TB) leukemia
# HOP-18 NSCLC = system: HOP-18 NSCLC
# SN12K1 renal = system: SN12K1 renal
# OVCAR-8 ovarian = system: OVCAR-8 ovarian
# A498 renal = system: A498 renal
# SF-295 CNS = system: SF-295 CNS
# KM20L2 colon = system: KM20L2 colon
# SK-OV-3 ovarian = system: SK-OV-3 ovarian
# SF-539 CNS = system: SF-539 CNS
# P388 leukemia = system: P388 leukemia
# HCC-2998 colon = system: HCC-2998 colon
# SN12C renal = system: SN12C renal
# SK-MEL-2 melanoma = system: SK-MEL-2 melanoma
# K-562 leukemia = system: K-562 leukemia
# RXF 393 renal = system: RXF 393 renal
# P388/ADR leukemia = system: P388/ADR leukemia
# UO-31 renal = system: UO-31 renal
# HOP-62 NSCLC = system: HOP-62 NSCLC
# NCI-H23 lung = system: NCI-H23 lung
# EKVX NSCLC = system: EKVX NSCLC
# TK-10 renal = system: TK-10 renal
# DLD-1 colon = system: DLD-1 colon
# DMS 273 small cell lung = system: DMS 273 small cell lung
# OVCAR-3 ovarian = system: OVCAR-3 ovarian
# HCT-15 colon = system: HCT-15 colon
# U251 CNS = system: U251 CNS
# HCT-116 colon = system: HCT-116 colon
# IGROV1 ovarian = system: IGROV1 ovarian
# M14 melanoma = system: M14 melanoma
# SF-268 CNS = system: SF-268 CNS
# UACC-62 melanoma = system: UACC-62 melanoma
# XF 498 CNS = system: XF 498 CNS
# DMS 114 small cell lung = system: DMS 114 small cell lung
# SW-620 colon = system: SW-620 colon
# SNB-78 CNS = system: SNB-78 CNS
# MALME-3M melanoma = system: MALME-3M melanoma
# CAKI-1 renal = system: CAKI-1 renal
# SNB-75 CNS = system: SNB-75 CNS
# NCI-H460 lung = system: NCI-H460 lung
smiles,measurement,setting,value
CSCS(=O)C[C@H](CO)NC(=O)/C=C/c1c(C)[nH]c(=O)[nH]c1=O (stereo partly drawn),TGI,SR leukemia,22.8 µM
same,GI50,COLO 205 colon,3.16 µM
same,TGI,786-0 renal,5.23 µM
same,GI50,HT29 colon,2.3 µM
same,TGI,HT29 colon,10 µM and 12.2 µM
same,TGI,RXF-631 renal,14.7 µM
same,GI50,SNB-19 CNS,0.605 µM
same,TGI,SNB-19 CNS,8.35 µM and 5.11 µM
same,TGI,LXFL 529 NSCLC,7.65 µM
same,GI50,UACC-257 melanoma,2.22 µM
same,TGI,UACC-257 melanoma,7.79 µM and 4.86 µM
same,TGI,NCI-H226 lung,3.42 µM
same,GI50,A549 NSCLC,1.99 µM
same,TGI,A549 NSCLC,8.93 µM and 5.64 µM
same,TGI,MCF7 breast,6.86 µM
same,TGI,RPMI-8226 leukemia,6.71 µM
same,TGI,NCI/ADR-RES ovarian,6.07 µM
same,GI50,SK-MEL-5 melanoma,1.7 µM
same,TGI,SK-MEL-5 melanoma,5.07 µM and 5.39 µM
same,GI50,OVCAR-5 ovarian,2.7 µM
same,TGI,OVCAR-5 ovarian,9.91 µM and 7.24 µM
same,GI50,M19-MEL melanoma,2.38 µM
same,TGI,M19-MEL melanoma,15.2 µM and 3.32 µM
same,GI50,CCRF-CEM leukemia,1.46 µM
same,TGI,CCRF-CEM leukemia,8.69 µM and 4.02 µM
same,TGI,ACHN renal,6.86 µM
same,GI50,SK-MEL-28 melanoma,1.89 µM
same,TGI,SK-MEL-28 melanoma,7.94 µM and 3.51 µM
same,GI50,OVCAR-4 ovarian,0.296 µM
same,TGI,OVCAR-4 ovarian,1.07 µM and 0.994 µM
same,GI50,KM12 colon,1.95 µM
same,TGI,KM12 colon,7.6 µM and 3.98 µM
same,GI50,NCI-H522 lung,1.35 µM
same,TGI,NCI-H522 lung,3.3 µM and 2.36 µM
same,GI50,LOX IMVI melanoma,0.449 µM
same,TGI,LOX IMVI melanoma,2.07 µM and 3.87 µM
same,TGI,MOLT-4 leukemia,6.73 µM and 5.09 µM
same,GI50,HOP-92 NSCLC,0.815 µM
same,TGI,HOP-92 NSCLC,4.05 µM and 0.778 µM
same,GI50,HL-60(TB) leukemia,2.23 µM
same,TGI,HL-60(TB) leukemia,4.96 µM and 3.44 µM
same,GI50,HOP-18 NSCLC,1.22 µM
same,TGI,HOP-18 NSCLC,> 30.8 µM and 5.85 µM
same,TGI,SN12K1 renal,4.42 µM
same,GI50,OVCAR-8 ovarian,1.02 µM
same,TGI,OVCAR-8 ovarian,3.96 µM and 4.35 µM
same,GI50,A498 renal,0.434 µM
same,TGI,A498 renal,2 µM and 2.06 µM
same,GI50,SF-295 CNS,0.406 µM
same,TGI,SF-295 CNS,2.64 µM and 2.37 µM
same,GI50,KM20L2 colon,2.07 µM
same,TGI,KM20L2 colon,12 µM and 4.35 µM
same,TGI,SK-OV-3 ovarian,6.11 µM and 6.96 µM
same,GI50,SF-539 CNS,1.2 µM
same,TGI,SF-539 CNS,4.1 µM and 2.66 µM
same,TGI,P388 leukemia,1.78 µM
same,GI50,HCC-2998 colon,2.5 µM
same,TGI,HCC-2998 colon,6.27 µM and 4.1 µM
same,GI50,SN12C renal,1.46 µM
same,TGI,SN12C renal,7.79 µM and 5.49 µM
same,GI50,SK-MEL-2 melanoma,1.65 µM
same,TGI,SK-MEL-2 melanoma,4.59 µM and 2.75 µM
same,GI50,K-562 leukemia,1.72 µM
same,TGI,K-562 leukemia,8.83 µM and 5.01 µM
same,GI50,RXF 393 renal,1.28 µM
same,TGI,RXF 393 renal,3.7 µM and 2.97 µM
same,TGI,P388/ADR leukemia,7.12 µM
same,GI50,UO-31 renal,2.97 µM
same,TGI,UO-31 renal,10.2 µM and 4.26 µM
same,GI50,HOP-62 NSCLC,1.57 µM
same,TGI,HOP-62 NSCLC,4.92 µM and 3.67 µM
same,GI50,NCI-H23 lung,1.84 µM
same,TGI,NCI-H23 lung,4.95 µM and 2.47 µM
same,GI50,EKVX NSCLC,3.3 µM
same,TGI,EKVX NSCLC,12.7 µM and 4.98 µM
same,TGI,TK-10 renal,> 29.5 µM
same,GI50,DLD-1 colon,2.23 µM
same,TGI,DLD-1 colon,> 23.4 µM and 7.25 µM
same,GI50,DMS 273 small cell lung,3.38 µM
same,TGI,DMS 273 small cell lung,28.1 µM and 4.54 µM
same,GI50,OVCAR-3 ovarian,1.89 µM
same,TGI,OVCAR-3 ovarian,4.63 µM and 3.98 µM
same,GI50,HCT-15 colon,2.93 µM
same,TGI,HCT-15 colon,13.6 µM and 6.92 µM
same,GI50,U251 CNS,0.498 µM and 0.297 µM
same,TGI,U251 CNS,3.63 µM and 1.91 µM
same,GI50,HCT-116 colon,3.16 µM
same,GI50,IGROV1 ovarian,1.78 µM
same,TGI,IGROV1 ovarian,9.35 µM and 14.1 µM
same,TGI,M14 melanoma,2.79 µM
same,GI50,SF-268 CNS,0.571 µM
same,TGI,SF-268 CNS,3.86 µM and 1.37 µM
same,GI50,UACC-62 melanoma,1.39 µM
same,TGI,UACC-62 melanoma,4.56 µM and 3.44 µM
same,TGI,XF 498 CNS,0.548 µM
same,GI50,DMS 114 small cell lung,1.7 µM
same,TGI,DMS 114 small cell lung,6.61 µM and 3.1 µM
same,GI50,SW-620 colon,3.35 µM
same,TGI,SW-620 colon,> 54.6 µM and 25.4 µM
same,GI50,SNB-78 CNS,0.919 µM
same,TGI,SNB-78 CNS,5.91 µM and 2.74 µM
same,GI50,MALME-3M melanoma,1.08 µM
same,TGI,MALME-3M melanoma,3.08 µM and 2.05 µM
same,GI50,CAKI-1 renal,2.74 µM
same,GI50,SNB-75 CNS,1.14 µM
same,TGI,SNB-75 CNS,4.15 µM and 1.03 µM
same,GI50,NCI-H460 lung,1.19 µM
same,TGI,NCI-H460 lung,> 27.6 µM and 7.55 µM
